Measurements taken from US20120231141A1, “BITTERNESS-IMPROVING AGENT FOR BITTER FOOD AND DRINK AND ASTRINGENCY-IMPROVING AGENT FOR ASTRINGENT FOOD AND DRINK” (priority 2009, published 2012).

Key:
[1] = Bitterness evaluation of grapefruit juice (flavor comparison by 10 panelists); format: in vivo; conditions: for A: the number of panelists who felt no difference from 3-n-butylphthalide-free / B: the number of panelists who felt some reduction in bitterness / Flavor judgment: the number of panelists who judged it as most proper bitterness / N: the number of panelists who hardly felt bitterness: 10 panelists
Protocol: 3-n-Butylphthalide was added as a bitterness-improving agent (masking agent for bitterness) of the present invention to commercially available grapefruit juice at the concentrations shown in the following Table 2 to obtain grapefruit juice.

[2] = Bitterness evaluation of green tea drink (flavor comparison by 10 panelists); format: in vivo; conditions: for A: the number of panelists who felt no difference from sedanolide-free / B: the number of panelists who fell some reduction in bitterness / Flavor judgment: the number of panelists who judged it as most proper bitterness / N: the number of panelists who hardly felt bitterness: 10 panelists
Protocol: Five thousand grams of hot water (containing 0.03% of sodium ascorbate) of 60° C. was added to 100 g of Chinese green tea (second picking tea) produced by Josei (heat treatment by steaming), followed by extraction for 5 min while sometimes stirring. Subsequently, solid-liquid separation with flannel filter was performed to obtain 4500 g of an extract (Bx 0.6°). To the extract, 0.04 g of tannase (Kikkoman Corporation: 5000 U/g) was added. The resulting mixture was left to stand at 40° C. for 1 hour to decompose the gallate-type catechin to non-gallate-type catechin (gallate-type catechin has strong astringency, and non-gallate-type catechin has strong bitterness), followed by heating at 90° C. for 1 min to inactivate the enzyme. After cooling to 20° C., the extract was adjusted to Bx 0.5° with deionized water to obtain green tea extract having strong bitterness. Sedanolide was added as a taste-improving agent (masking agent for bitterness) of the present invention to the resulting extract at the concentrations shown in the following Table 3 to obtain green tea drinks.

[3] = 3-n-butylphthalide 0.01 ppb in grapefruit juice
[4] = 3-n-butylphthalide 0.01 ppm in grapefruit juice
[5] = 3-n-butylphthalide 0.1 ppb in grapefruit juice
[6] = 3-n-butylphthalide 0.1 ppm in grapefruit juice
[7] = 3-n-butylphthalide 1 ppb in grapefruit juice
[8] = 3-n-butylphthalide 1 ppm in grapefruit juice
[9] = 3-n-butylphthalide 1 ppt in grapefruit juice
[10] = 3-n-butylphthalide 10 ppm in grapefruit juice
[11] = sedanolide 0.01 ppb in green tea drink having strong bitterness
[12] = sedanolide 0.01 ppm in green tea drink having strong bitterness
[13] = sedanolide 0.1 ppb in green tea drink having strong bitterness
[14] = sedanolide 0.1 ppm in green tea drink having strong bitterness
[15] = sedanolide 1 ppb in green tea drink having strong bitterness
[16] = sedanolide 1 ppm in green tea drink having strong bitterness
[17] = sedanolide 1 ppt in green tea drink having strong bitterness
[18] = sedanolide 10 ppm in green tea drink having strong bitterness

SMILES: CCCCC1OC(=O)c2ccccc21 (stereo not shown) [3-n-butylphthalide]
- A: the number of panelists who felt no difference from 3-n-butylphthalide-free [1, 3]: 7
- B: the number of panelists who felt some reduction in bitterness [1, 3]: 2
- Flavor judgment: the number of panelists who judged it as most proper bitterness [1, 3]: 0
- N: the number of panelists who hardly felt bitterness [1, 3]: 1
- reduction in bitterness at low concentration ([1]; 3-n-butylphthalide 0.01 ppb, grapefruit juice): some panelists felt some reduction in bitterness
- A: the number of panelists who felt no difference from 3-n-butylphthalide-free [1, 4]: 2
- B: the number of panelists who felt some reduction in bitterness [1, 4]: 6
- Flavor judgment: the number of panelists who judged it as most proper bitterness [1, 4]: 2
- N: the number of panelists who hardly felt bitterness [1, 4]: 2
- A: the number of panelists who felt no difference from 3-n-butylphthalide-free [1, 5]: 4
- B: the number of panelists who felt some reduction in bitterness [1, 5]: 6
- Flavor judgment: the number of panelists who judged it as most proper bitterness [1, 5]: 0
- N: the number of panelists who hardly felt bitterness [1, 5]: 0
- A: the number of panelists who felt no difference from 3-n-butylphthalide-free [1, 6]: 0
- B: the number of panelists who felt some reduction in bitterness [1, 6]: 4
- Flavor judgment: the number of panelists who judged it as most proper bitterness [1, 6]: 5
- N: the number of panelists who hardly felt bitterness [1, 6]: 6
- A: the number of panelists who felt no difference from 3-n-butylphthalide-free [1, 7]: 3
- B: the number of panelists who felt some reduction in bitterness [1, 7]: 7
- Flavor judgment: the number of panelists who judged it as most proper bitterness [1, 7]: 0
- N: the number of panelists who hardly felt bitterness [1, 7]: 0
- A: the number of panelists who felt no difference from 3-n-butylphthalide-free [1, 8]: 0
- B: the number of panelists who felt some reduction in bitterness [1, 8]: 4
- Flavor judgment: the number of panelists who judged it as most proper bitterness [1, 8]: 3
- N: the number of panelists who hardly felt bitterness [1, 8]: 6
- A: the number of panelists who felt no difference from 3-n-butylphthalide-free [1, 9]: 9
- B: the number of panelists who felt some reduction in bitterness [1, 9]: 1
- Flavor judgment: the number of panelists who judged it as most proper bitterness [1, 9]: 0
- N: the number of panelists who hardly felt bitterness [1, 9]: 0
- A: the number of panelists who felt no difference from 3-n-butylphthalide-free [1, 10]: 0
- B: the number of panelists who felt some reduction in bitterness [1, 10]: 3
- Flavor judgment: the number of panelists who judged it as most proper bitterness [1, 10]: 0
- N: the number of panelists who hardly felt bitterness [1, 10]: 7
- overall result of bitterness masking ([1]; amount of 3-n-butylphthalide about 0.1 ppb to 1 ppm, grapefruit juice): particularly good results were obtained
- bitterness of grapefruit juice (judgment) ([1]; grapefruit juice containing 0.01 ppb to 10 ppm of 3-n-butylphthalide): masked

SMILES: CCCCC1OC(=O)C2=CCCCC21 (stereo not shown) [sedanolide]
- overall result of bitterness masking ([2]; amount of sedanolide about 0.1 ppb to 1 ppm, green tea drink): particularly good results were obtained
- bitterness of green tea drink (judgment) ([2]; green tea drink containing 0.01 ppb to 10 ppm of sedanolide): masked
- A: the number of panelists who felt no difference from sedanolide-free [2, 11]: 8
- B: the number of panelists who fell some reduction in bitterness [2, 11]: 2
- Flavor judgment: the number of panelists who judged it as most proper bitterness [2, 11]: 0
- N: the number of panelists who hardly felt bitterness [2, 11]: 0
- reduction in bitterness at low concentration ([2]; sedanolide 0.01 ppb, green tea drink): some panelists felt some reduction in bitterness
- A: the number of panelists who felt no difference from sedanolide-free [2, 12]: 2
- B: the number of panelists who fell some reduction in bitterness [2, 12]: 6
- Flavor judgment: the number of panelists who judged it as most proper bitterness [2, 12]: 2
- N: the number of panelists who hardly felt bitterness [2, 12]: 2
- A: the number of panelists who felt no difference from sedanolide-free [2, 13]: 4
- B: the number of panelists who fell some reduction in bitterness [2, 13]: 5
- Flavor judgment: the number of panelists who judged it as most proper bitterness [2, 13]: 0
- N: the number of panelists who hardly felt bitterness [2, 13]: 1
- A: the number of panelists who felt no difference from sedanolide-free [2, 14]: 0
- B: the number of panelists who fell some reduction in bitterness [2, 14]: 5
- Flavor judgment: the number of panelists who judged it as most proper bitterness [2, 14]: 5
- N: the number of panelists who hardly felt bitterness [2, 14]: 5
- A: the number of panelists who felt no difference from sedanolide-free [2, 15]: 3
- B: the number of panelists who fell some reduction in bitterness [2, 15]: 6
- Flavor judgment: the number of panelists who judged it as most proper bitterness [2, 15]: 0
- N: the number of panelists who hardly felt bitterness [2, 15]: 1
- A: the number of panelists who felt no difference from sedanolide-free [2, 16]: 0
- B: the number of panelists who fell some reduction in bitterness [2, 16]: 5
- Flavor judgment: the number of panelists who judged it as most proper bitterness [2, 16]: 3
- N: the number of panelists who hardly felt bitterness [2, 16]: 5
- A: the number of panelists who felt no difference from sedanolide-free [2, 17]: 10
- B: the number of panelists who fell some reduction in bitterness [2, 17]: 0
- Flavor judgment: the number of panelists who judged it as most proper bitterness [2, 17]: 0
- N: the number of panelists who hardly felt bitterness [2, 17]: 0
- A: the number of panelists who felt no difference from sedanolide-free [2, 18]: 0
- B: the number of panelists who fell some reduction in bitterness [2, 18]: 5
- Flavor judgment: the number of panelists who judged it as most proper bitterness [2, 18]: 0
- N: the number of panelists who hardly felt bitterness [2, 18]: 5
